19 compounds from US10774068B2, “Composition and methods for inhibiting mammalian sterile 20-like kinase 1” (The Scripps Research Institute, priority 2015, dated 2020) can be followed below.

Experiment [1] concerns human islets. Nature of the experiment: Cytokine (IL-1β and IFN-γ) induced apoptotic activity in human islets. The format is cell-based. The conditions noted are these: FIG. 9.
The subject of a further experiment is T1D model mice. Nature of the experiment: T1D model mice treated with streptozotocin (STZ). It is filed as in vivo.
Experiment [2] deals with T1, MST1 (Homo sapiens (Human), UniProt Q13043). Nature of the experiment: MST1 kinase activity. The format is biochemical.
The test system of experiment [3] is human islets. In words: High glucose/palmitate induced apoptotic activity in human islets. More on the design: MST1 phosphorylation (pMST1): dose or concentration left out as unconfirmed. The settings on record: HG/Pal, FIG. 8.
Source text: Freshly isolated human islets from a single donor were exposed to high glucose and palmitate (HG/Pal) to induce apoptosis.
A further experiment has as its system Beta cell. Nature of the experiment: Beta cell apoptosis with increasing concentrations of neratinib (FIG. 3). The format is cell-based.
In experiment [4] the target is T1, MST1. In words: MST1 biochemical LanthaScreen Eu Kinase Binding Assay. The method, then: (§1) MST1 and MST2 biochemical LanthaScreen Eu Kinase Binding Assay was based on the binding and displacement of kinase tracer to the kinase of interest. Compounds in 1000×DMSO stock solution was dispensed using automated dispensing system (Labcyte) to 384 well Corning Microplate at 15 nL, 5 uL of Kinase buffer A was added to each well. Plates were shaken and incubated for 1 min to ensure well dissolution of compounds.

The target in another experiment is MST2 (Homo sapiens (Human), UniProt Q13188). In words: MST2 biochemical LanthaScreen Eu Kinase Binding Assay. The method, then:
as §1

Setting [5] is: read-out: Kinase Binding assay-MST1 IC50.
The mark [6] stands for this setting: read-out: Kinase Binding assay-MST2 IC50.

Read-outs that look alike come from different tables or passages of the source. Some results are limits rather than exact numbers.

T1 sequence (Q13043 whole entry): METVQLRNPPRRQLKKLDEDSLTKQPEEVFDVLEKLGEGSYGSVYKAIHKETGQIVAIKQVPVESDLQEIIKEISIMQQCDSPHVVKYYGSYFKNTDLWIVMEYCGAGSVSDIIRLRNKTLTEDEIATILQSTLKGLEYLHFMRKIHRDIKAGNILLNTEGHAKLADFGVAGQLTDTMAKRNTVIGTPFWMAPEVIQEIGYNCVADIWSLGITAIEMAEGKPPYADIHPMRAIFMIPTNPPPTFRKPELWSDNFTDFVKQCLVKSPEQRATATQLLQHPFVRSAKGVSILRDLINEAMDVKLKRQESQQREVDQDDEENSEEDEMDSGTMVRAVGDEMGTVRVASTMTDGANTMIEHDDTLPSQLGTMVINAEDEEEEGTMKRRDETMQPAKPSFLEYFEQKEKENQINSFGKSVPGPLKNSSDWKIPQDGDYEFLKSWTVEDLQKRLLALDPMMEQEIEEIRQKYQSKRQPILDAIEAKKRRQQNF
Sequence of MST2 (Q13188 whole entry): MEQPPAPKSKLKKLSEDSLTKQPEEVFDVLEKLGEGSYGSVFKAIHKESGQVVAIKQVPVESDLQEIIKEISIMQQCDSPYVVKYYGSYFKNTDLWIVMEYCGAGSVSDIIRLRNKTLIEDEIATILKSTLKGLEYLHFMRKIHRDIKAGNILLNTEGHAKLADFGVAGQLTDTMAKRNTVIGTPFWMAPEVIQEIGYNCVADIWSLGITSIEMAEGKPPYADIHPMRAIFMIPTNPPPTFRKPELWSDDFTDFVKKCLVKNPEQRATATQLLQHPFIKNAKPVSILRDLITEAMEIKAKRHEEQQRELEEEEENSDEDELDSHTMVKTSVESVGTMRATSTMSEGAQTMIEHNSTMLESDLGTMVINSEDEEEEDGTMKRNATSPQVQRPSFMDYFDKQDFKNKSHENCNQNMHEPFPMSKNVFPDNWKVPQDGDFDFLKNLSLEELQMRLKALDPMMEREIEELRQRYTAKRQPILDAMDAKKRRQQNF

For the compound `CCOc1cc2ncc(C#N)c(Nc3ccc(OCc4ccccn4)c(Cl)c3)c2cc1NC(=O)/C=C/CN(C)C` [neratinib], in the experiment with human islets [1] (10 μM neratinib), the “Caspase 3 cleavage” value was “inhibited” and the MST1 phosphorylation entry is “inhibited”. Further, in the experiment on human islets [1] (25 μM neratinib), the “Caspase 3 cleavage” value is reported as “inhibited” and the MST1 phosphorylation entry was “inhibited”. Further, the hyperglycemia result in the experiment with T1D model mice (T1D model mice treated with STZ, FIG. 4) was “attenuated”. Moreover, the “responses to acute glucose challenge” value in the experiment with T1D model mice (T1D model mice, FIG. 5) is given as “improved”. Moreover, the blood glucose result in the experiment with T1D model mice (T1D model mice, FIG. 6) was “reduced”. The serum insulin result in the experiment on T1D model mice (T1D model mice, FIG. 7) was “increased”. Also, on MST1 [2], the MST1 kinase activity entry was “inhibitor”. The “induction of cleaved caspase 3 (Cl Casp3)” value in the experiment with human islets [3] (25 M neratinib (so in the source)) is “inhibited”. Moreover, the “MST1 phosphorylation (pMST1)” value in the experiment on human islets [3] was “inhibited”. For the same compound, in the experiment with Beta cell, the Beta cell apoptosis result is listed as “decrease”.

On to `CCOc1cc2ncc(C#N)c(Nc3ccc(OCc4ncccc4C)c(C)c3)c2cc1NC(=O)CCCN(C)C` [Example 21], for which the IC50 at MST1 [4] (setting [5]) is under 0.1 µM; on MST2, 0.1 to 1 µM.

In the case of `CCOc1cc2ncc(C#N)c(Nc3ccc(OCc4ncccc4C(F)(F)F)cc3Cl)c2cc1NC(=O)CCCN(C)C` [Example 81], the IC50 at MST1 [4] (setting [5]) and at MST2 (setting [6]) was under 0.1 µM throughout.

As for `CCOc1cc2ncc(C#N)c(Nc3ccc(OCc4ncccc4C)cc3)c2cc1NC(=O)CCCN(C)C` [Example 20], the IC50 was under 0.1 µM at MST1 [4] (setting [5]) and 0.1 to 1 µM on MST2.

On to `CCOc1cc2ncc(C#N)c(Nc3ccc(OCc4ncccc4C)c(Cl)c3)c2cc1NC(=O)CCCN(C)C` [Example 1], for which the IC50 at MST1 [4] (setting [5]) and at MST2 (setting [6]) was under 0.1 µM in each case.

For the compound `CCOc1cc2ncc(C#N)c(Nc3ccc(OCc4ccccn4)c(Cl)c3)c2cc1NC(=O)CCCOC` [Example 102], the IC50 at MST1 [4] (setting [5]) and on MST2 was 0.1 to 1 µM throughout.

For the compound `CCOc1cc2ncc(C#N)c(Nc3ccc(OCc4cc(C5CC5)on4)c(Cl)c3)c2cc1NC(=O)CCCN(C)C` [Example 40], the concentration for half-maximal inhibition (IC50) at MST1 [4] (setting [5]) and on MST2 was 0.1 to 1 µM throughout.

For the compound `CCOc1cc2ncc(C=O)c(Nc3ccc(OCc4ncccc4C)cc3Cl)c2cc1NC(=O)CCCN(C)C` [Example 145, N-(4-(2-chloro-4-((3-methylpyridin-2-yl)methoxy)phenylamino)-7-ethoxy-3-formylquinolin-6-yl)-4-(dimethylamino)butanamide], the half-inhibitory concentration (IC50) on MST1 [4] and at MST2 was 1 to 10 µM each time.

Turning to `CCOc1cc2ncc(C#N)c(Nc3ccc(OCc4ncccc4Cl)c(Cl)c3)c2cc1NC(=O)CCCN(C)C` [Example 35], the concentration for half-maximal inhibition (IC50) at MST1 [4] (setting [5]) and at MST2 (setting [6]) was under 0.1 µM in each case.

Turning to `CCOc1cc2ncc(C#N)c(Nc3cc(C)c(OCc4ncccc4C)c(C)c3)c2cc1NC(=O)CCCN(C)C` [Example 32], the concentration for half-maximal inhibition (IC50) is under 0.1 µM on MST1 [4] (setting [5]) and 0.1 to 1 µM on MST2.

For `CCOc1cc2ncc(C#N)c(Nc3ccc(OCc4ncc(C)o4)c(Cl)c3)c2cc1NC(=O)CCCN(C)C` [Example 39], the IC50 on MST1 [4] (setting [5]) was under 0.1 µM; on MST2 it was 0.1 to 1 µM.

Regarding `CCOc1cc2ncc(C#N)c(Nc3ccc(OCc4ncccc4C)c(F)c3)c2cc1NC(=O)CCCN(C)C` [Example 22], the IC50 on MST1 [4] (setting [5]) and at MST2 (setting [6]) was under 0.1 µM in each case.

Consider `CCOc1cc2ncc(C#N)c(Nc3ccc(OCc4ncccc4C(=O)OC)cc3Cl)c2cc1NC(=O)CCCN(C)C` [Example 82], for which the IC50 at MST1 [4] (setting [5]) and on MST2 was 0.1 to 1 µM throughout.

For `CCOc1cc2ncc(C#N)c(Nc3ccc(OCc4ncccc4C)cc3C#N)c2cc1NC(=O)CCCN(C)C` [Example 30], the IC50 is under 0.1 µM at MST1 [4] (setting [5]) and 0.1 to 1 µM at MST2.

For `CCOc1cc2ncc(C#N)c(Nc3ccc(OCc4ncccc4C)cc3Cl)c2cc1NC(=O)CCCN(C)C` [Example 25, N-(4-((2-chloro-4-((3-methyl-pyridin-2-yl)methoxy)phenyl)amino)-3-cyano-7-ethoxyquinolin-6-yl)-4-(dimethylamino)butanamide], the IC50 at MST1 [4] (setting [5]) and on MST2 (setting [6]) was under 0.1 µM throughout.

`CCOc1cc2ncc(C#N)c(Nc3ccc(OCc4cccc(F)n4)c(Cl)c3)c2cc1NC(=O)CCCN(C)C` [Example 4]: the IC50 at MST1 [4] (setting [5]) and on MST2 (setting [6]) was under 0.1 µM each time.

Consider `CCOc1cc2ncc(C#N)c(Nc3ccc(OCc4nccn4CC)c(Cl)c3)c2cc1NC(=O)CCCN(C)C` [Example 38], for which the IC50 at MST1 [4] (setting [5]) and at MST2 was 0.1 to 1 µM in each case.

On to `CCOc1cc2ncc(C#N)c(Nc3ccc(OCc4ccc(F)cn4)c(Cl)c3)c2cc1NC(=O)CCCN(C)C` [Example 13], for which the 50% inhibitory concentration (IC50) on MST1 [4] and on MST2 was 0.1 to 1 µM throughout.

Regarding `CCOc1cc2ncc(C#N)c(Nc3ccc(OCc4ncccc4C)c(C#N)c3)c2cc1NC(=O)CCCN(C)C` [Example 27], the half-maximal inhibitory concentration (IC50) at MST1 [4] lay within 0.1 to 1 µM; on MST2 it was 1 to 10 µM.
